# Source: article PMC9374744, “Structural basis for receptor selectivity and inverse agonism in S1P5 receptors” (Nature Communications, 2022)
# Where “and” joins values, the source holds several entries; their conditions need not be identical. Equal values may be shown once.
# Key:
# human S1P5 K24Q mutant = human S1P5 K24Q mutant (Homo sapiens, UniProt Q9H228, K24Q); experiment: BRET-based cAMP Gi signaling assay, S1P5 K24Q; conditions: inverse agonism
# human S1P5 Y89W mutant = human S1P5 Y89W mutant (Homo sapiens, UniProt Q9H228, Y89W); experiment: BRET-based cAMP Gi signaling assay, S1P5 Y89W; conditions: inverse agonism
# Chain of human S1P5 Y89W mutant (Q9H228 whole entry Y89W): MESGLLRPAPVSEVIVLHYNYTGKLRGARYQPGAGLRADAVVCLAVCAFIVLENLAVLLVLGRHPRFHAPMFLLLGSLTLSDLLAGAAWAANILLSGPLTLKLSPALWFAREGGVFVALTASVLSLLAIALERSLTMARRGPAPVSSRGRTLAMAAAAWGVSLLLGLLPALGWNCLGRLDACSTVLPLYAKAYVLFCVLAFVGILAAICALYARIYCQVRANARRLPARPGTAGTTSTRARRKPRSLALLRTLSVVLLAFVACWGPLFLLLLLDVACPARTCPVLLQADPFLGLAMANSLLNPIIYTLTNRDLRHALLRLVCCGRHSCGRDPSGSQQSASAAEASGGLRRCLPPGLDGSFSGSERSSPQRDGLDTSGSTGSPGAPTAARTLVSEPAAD
# human S1P5 K24R mutant = human S1P5 K24R mutant (Homo sapiens, UniProt Q9H228, K24R); experiment: BRET-based cAMP Gi signaling assay, S1P5 K24R; conditions: for BRET ratio, Supplementary Figure 6b: replicate values, listed as ONO; for EC50: inverse agonism
# Chain of human S1P5 K24R mutant (Q9H228 whole entry K24R): as the sequence (Q9H228 whole entry Y89W) above, with K24R, W89Y counted along it
# human S1P5 Y89A mutant = human S1P5 Y89A mutant (Homo sapiens, UniProt Q9H228, Y89A); experiment: BRET-based cAMP Gi signaling assay, S1P5 Y89A; conditions: inverse agonism
# Chain of human S1P5 Y89A mutant (Q9H228 whole entry Y89A): as the sequence (Q9H228 whole entry Y89W) above, with W89A counted along it
# human S1P5 T79A mutant = human S1P5 T79A mutant (Homo sapiens, UniProt Q9H228, T79A); experiment: BRET-based cAMP Gi signaling assay, S1P5 T79A; conditions: for EC50: inverse agonism; for BRET signal, raw replicates: Suppl. Fig. 6d, listed as ONO
# Chain of human S1P5 T79A mutant (Q9H228 whole entry T79A): as the sequence (Q9H228 whole entry Y89W) above, with T79A, W89Y counted along it
# [1] = Figure 2c source data, N/R = no response
# Chain of human S1P5 K24Q mutant (Q9H228 whole entry K24Q): as the sequence (Q9H228 whole entry Y89W) above, with K24Q, W89Y counted along it
smiles,measurement,setting,value
"O=C(O)CCCN1CCc2cccc(OCCc3cccc4ccccc34)c2CC1 [ONO-5430608, 4-{6-[2-(1-naphthyl)ethoxy]-1,2,4,5-tetrahydro-3H-3-benzazepin-3-yl} butanoic acid]","ONO-5430608 pEC50, single experiments #1-#3",human S1P5 K24Q mutant; [1],N/R
same,"ONO, pEC50, M","human S1P5 K24Q mutant; n=3, N/R = no response",N/R
same,EC50,"human S1P5 Y89W mutant; ONO, pEC50, M, Y89W, mean ± SD, n=3",2.95 nM
same,EC50,"human S1P5 Y89W mutant; ONO-5430608 pEC50, single experiments #1-#3, Y89W, Figure 2c source data",3.01 nM and 1.99 nM and 4.31 nM
same,"BRET ratio, Supplementary Figure 6b","human S1P5 K24R mutant; K24R, [ONO] 0.169351 nM",0.7619 and 0.7605 and 0.7627 and 0.7643 and 0.765 and 0.7649 and 0.7612 and 0.7652 and 0.7621
same,"BRET ratio, Supplementary Figure 6b","human S1P5 K24R mutant; K24R, [ONO] 0.508053 nM",0.7573 and 0.7607 and 0.7624 and 0.7643 and 0.7627 and 0.7635 and 0.7628 and 0.761 and 0.7617
same,"BRET ratio, Supplementary Figure 6b","human S1P5 K24R mutant; K24R, [ONO] 1.52416 nM",0.7542 and 0.7548 and 0.7577 and 0.7568 (2×) and 0.7598 and 0.7585 and 0.7546 and 0.7523
same,"BRET ratio, Supplementary Figure 6b","human S1P5 K24R mutant; K24R, [ONO] 4.57247 nM",0.7493 and 0.7475 and 0.7463 and 0.7487 and 0.7486 and 0.7479 and 0.7433 and 0.7453 and 0.7422
same,"BRET ratio, Supplementary Figure 6b","human S1P5 K24R mutant; K24R, [ONO] 13.7174 nM",0.7349 and 0.7366 and 0.7407 and 0.7346 and 0.7367 and 0.7337 and 0.7316 and 0.7355 and 0.7298
same,EC50,"human S1P5 K24R mutant; ONO, pEC50, M, K24R, mean ± SD, n=3",4.57 nM
same,EC50,"human S1P5 K24R mutant; ONO-5430608 pEC50, single experiments #1-#3, K24R, Figure 2c source data",4.65 nM and 4.87 nM and 4.1 nM
same,"ONO-5430608 pEC50, single experiments #1-#3",human S1P5 Y89A mutant; [1],N/R
same,"ONO, pEC50, M","human S1P5 Y89A mutant; n=3, N/R = no response",N/R and abolishes the functional response
same,EC50,"human S1P5 T79A mutant; ONO, pEC50, M, T79A, mean ± SD, n=3",5.13 nM
same,EC50,"human S1P5 T79A mutant; ONO-5430608 pEC50, single experiments #1-#3, T79A, Figure 2c source data",3.81 nM and 5.96 nM and 5.8 nM
same,"BRET signal, raw replicates","human S1P5 T79A mutant; [ONO] 0.169351 nM, T79A",0.7648 and 0.7694 and 0.7618 (2×) and 0.7719 and 0.7737 and 0.7678 and 0.7602 and 0.7581
same,"BRET signal, raw replicates","human S1P5 T79A mutant; [ONO] 0.508053 nM, T79A",0.7658 and 0.7637 (2×) and 0.7584 and 0.7703 and 0.7711 and 0.7719 and 0.7599 and 0.7561
same,"BRET signal, raw replicates","human S1P5 T79A mutant; [ONO] 1.52416 nM, T79A",0.7571 and 0.7588 and 0.7577 and 0.7674 and 0.7689 and 0.7688 and 0.7557 and 0.7543 and 0.7567
same,"BRET signal, raw replicates","human S1P5 T79A mutant; [ONO] 4.57247 nM, T79A",0.7445 and 0.7467 and 0.7472 (2×) and 0.7504 and 0.7523 and 0.7521 and 0.7458 and 0.7451
same,"BRET signal, raw replicates","human S1P5 T79A mutant; [ONO] 13.7174 nM, T79A",0.7344 and 0.7321 and 0.7375 and 0.7326 and 0.7336 and 0.7328 and 0.7266 and 0.7286 and 0.7299
same,"BRET signal, raw replicates","human S1P5 T79A mutant; [ONO] 41.1523 nM, T79A",0.7277 and 0.7202 and 0.7265 and 0.7247 and 0.7224 and 0.7225 and 0.7195 and 0.7262 and 0.7173
same,"BRET signal, raw replicates","human S1P5 T79A mutant; [ONO] 123.457 nM, T79A",0.7246 and 0.7211 and 0.7132 and 0.7206 and 0.7203 and 0.7177 and 0.7146 and 0.7143 and 0.7168
same,"BRET signal, raw replicates","human S1P5 T79A mutant; [ONO] 370.37 nM, T79A",0.7198 and 0.7165 and 0.7203 and 0.7175 and 0.72 and 0.7188 and 0.7152 and 0.7138 and 0.7182
same,"BRET signal, raw replicates","human S1P5 T79A mutant; [ONO] 1111.11 nM, T79A",0.7229 and 0.7217 and 0.7211 and 0.7178 and 0.7185 and 0.7189 and 0.7126 and 0.7148 and 0.7145
same,"BRET signal, raw replicates","human S1P5 T79A mutant; [ONO] 3333.33 nM, T79A",0.7168 and 0.7147 and 0.7207 and 0.7195 and 0.7142 and 0.7166 and 0.7162 and 0.7151 and 0.7155
